Drawing on ChEMBL document CHEMBL4354802, “Peptide derivatives as inhibitors of NS2B-NS3 protease from Dengue, West Nile, and Zika flaviviruses” (Bioorg Med Chem, 2019), this text covers Ki, IC50 and inhibition for 14 compounds.

Non-standard residues stand in square brackets, D forms with d. Residues, ends and D or L forms follow the SMILES beside them. ξ: configuration not given here. *: point of attachment. Trp(5-NO2) = N[C@@H](Cc1c[nH]c2ccc([N+](=O)[O-])cc12)C(=O)O; Gly(2-naphthyl) = N[C@H](C(=O)O)c1ccc2ccccc2c1; ξR = N=C(N)NCCCC(N)C(=O)O; 2Abz = Nc1ccccc1C(=O)O; PhAc = O=C(Cc1ccccc1)*

In series [1] the target is Genome polyprotein. The series can be described thus: Inhibition of Dengue virus serotype 1 NS2B-NS3 protease preincubated for 20 mins followed by Abz-RRRRSAG-nY-NH2 addition and measured for 60 mins by fluorescence method. Details: species or system dengue virus type 1.
Target sequence in this assay (P29990 1346-1475 limits assumed): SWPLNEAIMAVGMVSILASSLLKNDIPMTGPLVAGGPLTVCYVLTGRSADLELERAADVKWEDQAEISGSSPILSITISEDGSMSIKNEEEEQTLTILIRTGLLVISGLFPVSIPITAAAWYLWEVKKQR
Target sequence in this assay (P29990 1476-2093 limits assumed): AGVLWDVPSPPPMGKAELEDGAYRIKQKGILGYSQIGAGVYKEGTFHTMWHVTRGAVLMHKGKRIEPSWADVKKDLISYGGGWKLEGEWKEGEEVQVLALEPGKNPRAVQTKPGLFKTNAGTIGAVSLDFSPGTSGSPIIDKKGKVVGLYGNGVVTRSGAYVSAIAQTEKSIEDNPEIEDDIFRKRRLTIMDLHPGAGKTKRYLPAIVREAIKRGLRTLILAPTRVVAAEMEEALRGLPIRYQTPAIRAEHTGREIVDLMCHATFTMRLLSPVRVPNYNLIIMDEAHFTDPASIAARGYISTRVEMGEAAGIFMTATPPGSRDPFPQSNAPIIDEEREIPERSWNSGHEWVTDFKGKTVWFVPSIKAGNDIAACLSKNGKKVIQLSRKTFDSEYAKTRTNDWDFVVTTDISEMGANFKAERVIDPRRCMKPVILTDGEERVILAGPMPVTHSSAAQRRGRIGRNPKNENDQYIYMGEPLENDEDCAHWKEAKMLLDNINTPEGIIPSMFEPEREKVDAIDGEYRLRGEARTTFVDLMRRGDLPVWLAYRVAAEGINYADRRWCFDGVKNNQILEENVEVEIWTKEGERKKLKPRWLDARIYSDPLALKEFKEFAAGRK
For series [2], the target named is T1, Genome polyprotein (dengue virus type 2, UniProt P29990). Briefly: Inhibition of Dengue virus serotype 2 NS2B-NS3 protease preincubated for 20 mins followed by Abz-RRRRSAG-nY-NH2 addition and measured for 60 mins by fluorescence method.
T1 sequence (P29990 1346-1475 limits assumed): as the sequence (P29990 1346-1475 limits assumed) above
T1 sequence (P29990 1476-2093 limits assumed): as the sequence (P29990 1476-2093 limits assumed) above
For series [3], the target named is T1, Genome polyprotein. The series can be described thus: Inhibition of Dengue virus serotype 2 NS2B(40 residues)-NS3 (185 residues) protease preincubated for 30 mins followed by ABz-nKRR-AMC addition and measured after 30 mins by fluorescence method.
Series [4] concerns the target T2, Genome polyprotein (West Nile virus, UniProt P06935). The series can be described thus: Inhibition of West Nile virus protease.
The target of series [5] is T2, Genome polyprotein. The series can be described thus: Inhibition of West Nile virus NS2B-NS3 protease preincubated for 1 hr followed by Pyr-RTKR-AMC addition and measured after 30 mins by fluorescence method.
The target in another series is thrombin (prothrombin) (Homo sapiens, UniProt P00734). The series can be described thus: Inhibition of human thrombin at 25 uM preincubated for 15 mins followed by Boc-Val-Pro-Arg-AMC addition and measured for 10 mins by continuous fluorimetric assay relative to control. The conditions noted are these: human thrombin enzyme, probe Boc-Val-Pro-Arg-AMC.
Series [6] addresses T2, Genome polyprotein. The series can be described thus: Inhibition of West Nile virus NS2B-NS3 protease preincubated for 10 mins followed by Np-KKR-pNA addition and measured every 5 secs for 2 mins by fluorescence method.
Series [7] has as its target T2, Genome polyprotein. Briefly: Inhibition of West Nile virus NS2B (47 residues)-NS3 (184 residues) protease expressed in Escherichia coli BL21 (DE3) preincubated for 15 mins followed by Benzoyl-Nle-KRR-AMC addition and measured after 30 mins by fluorescence method.
Series [8] addresses T3, Nonstructural protein 3 (Zika virus, UniProt A0A024AXB9). Briefly: Inhibition of Zika virus IbH_30656 NS2B (45 to 96 residues)-NS3 (1 to 177 residues) protease expressed in Escherichia coli BL21/Rosetta (DE3) cells preincubated for 60 mins followed by Bz-nKRR-AMC addition and measured at 60 secs intervals over 10 mins by fluorescence method.
Series [9] concerns the target T3, Nonstructural protein 3. The series can be described thus: Inhibition of Zika virus unlinked NS2B-NS3 protease preincubated for 5 mins followed by benzoyl-nKRR-AMC addition and measured every 60 secs for 12 mins by fluorescence method.
The target of series [10] is T3, Nonstructural protein 3. The series can be described thus: Inhibition of N-terminal His6-SUMO tagged Zika virus Puerto Rico NS2B-NS3 linked protease expressed in Escherichia coli BL21 Codon Plus (DE3) cells preincubated for 10 mins followed by pyr-TGKR-AMC addition and measured every 5 secs for 2 mins by fluorometric enzyme assay.
The target of series [11] is T3, Nonstructural protein 3. The series can be described thus: Inhibition of N-terminal His6-SUMO tagged Zika virus Puerto Rico NS2B-NS3 unlinked protease expressed in Escherichia coli BL21 Codon Plus (DE3) cells preincubated for 10 mins followed by pyr-TGKR-AMC addition and measured every 5 secs for 2 mins by fluorometric enzyme assay.
In series [12] the target is T3, Nonstructural protein 3. The series can be described thus: Inhibition of N-terminal His6-SUMO tagged Zika virus Puerto Rico NS2B-NS3 unlinked protease expressed in Escherichia coli BL21 Codon Plus (DE3) cells preincubated for 90 mins followed by pyr-TGKR-AMC addition and measured every 5 secs for 2 mins by fluorometric enzyme assay.

T3 sequence (A0A024AXB9 whole entry, the tested form may be a part): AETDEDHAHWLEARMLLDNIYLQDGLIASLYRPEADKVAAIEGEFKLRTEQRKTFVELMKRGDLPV
T2 sequence (P06935 1371-1501 limits assumed): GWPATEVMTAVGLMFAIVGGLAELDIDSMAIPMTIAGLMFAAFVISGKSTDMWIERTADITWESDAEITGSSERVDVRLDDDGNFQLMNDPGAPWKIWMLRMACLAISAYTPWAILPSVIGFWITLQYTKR
T2 sequence (P06935 1502-2120 limits assumed): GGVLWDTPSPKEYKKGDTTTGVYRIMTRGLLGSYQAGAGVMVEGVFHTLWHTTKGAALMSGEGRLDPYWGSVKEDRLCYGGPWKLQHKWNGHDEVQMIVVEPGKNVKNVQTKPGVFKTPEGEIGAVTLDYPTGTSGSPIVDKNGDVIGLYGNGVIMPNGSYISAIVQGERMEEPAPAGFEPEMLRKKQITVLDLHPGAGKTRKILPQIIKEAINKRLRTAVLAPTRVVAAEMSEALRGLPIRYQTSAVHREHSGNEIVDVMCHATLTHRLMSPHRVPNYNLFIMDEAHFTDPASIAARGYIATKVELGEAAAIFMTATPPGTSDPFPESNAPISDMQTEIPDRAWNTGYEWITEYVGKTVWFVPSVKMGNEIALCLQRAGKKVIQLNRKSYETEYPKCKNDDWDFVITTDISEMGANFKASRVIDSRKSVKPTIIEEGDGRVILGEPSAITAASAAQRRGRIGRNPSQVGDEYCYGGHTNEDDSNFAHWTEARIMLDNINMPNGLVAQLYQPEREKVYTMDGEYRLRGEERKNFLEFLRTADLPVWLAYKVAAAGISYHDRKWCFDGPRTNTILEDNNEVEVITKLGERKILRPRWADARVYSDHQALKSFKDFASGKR

The Ki is a measure of affinity in units of concentration, obtained from inhibition or displacement. Regarding `N=C(N)NCCC[C@H](NC(=O)[C@H](CCCNC(=N)N)NC(=O)[C@H](CCCNC(=N)N)NC(=O)[C@@H](N)CCCNC(=N)N)C(=O)N[C@@H](Cc1cnc[nH]1)C(=O)N[C@@H](Cc1c[nH]c2ccccc12)C(=O)N[C@@H](CS)C(=O)N[C@@H](Cc1c[nH]c2ccccc12)C(N)=O` (H-RRRRHWCW-NH2), the Ki on Genome polyprotein [1] worked out at 400 nM; at Genome polyprotein [2] it was 300 nM.

As a reminder, the IC50 is the concentration that gives 50% inhibition. Turning to `N=C(N)NCCC[C@@H](C=O)NC(=O)[C@H](CCCCN)NC(=O)[C@H](CCCCN)NC(=O)Cc1ccc(-c2ccccc2)cc1`, the results for the IC50 on Genome polyprotein [3] and against Genome polyprotein [4] were 12200 nM and 56 nM, respectively.

As for `CC(=O)N[C@@H](CCCCN)C(=O)N[C@@H](CCCCN)C(=O)NCCCCNC(=N)N`, at Genome polyprotein [5], the 50% inhibitory concentration (IC50) was 18700 nM and affinity was put at a Ki of 4900 nM.

In general, inhibition refers to the percentage by which the read-out fell short of the control. Higher therefore signals strong suppression. Consider `CCCC[C@H](NC(=O)[C@H](CCCCN)NC(=O)[C@H](CCCNC(=N)N)NC(=O)c1ccc(/C=C(\C#N)C(=O)NC2CC2)cc1)C(N)=O`, for which, at thrombin (prothrombin), the inhibition at 10 min, 25 µM was found to be 13.4%.

The compound `N=C(N)NCCCC(NC(=O)[C@H](CCCCN)NC(=O)[C@H](CCCCN)NC(=O)[C@@H](NC(=O)[C@H](Cc1c[nH]cn1)NC(=O)CNC(=O)CN)c1ccc2ccccc2c1)C(N)=O` (stereo not given in full) (H-GGH[Gly(2-naphthyl)]KK[ξR]-NH2) returned an inhibitory constant (Ki) at Genome polyprotein [6] of 8000 nM.

For `CC(C)C[C@H](NC(=O)[C@H](Cc1cnc[nH]1)NC(=O)[C@H](CCCNC(=N)N)NC(=O)[C@H](CCCNC(=N)N)NC(=O)[C@H](CCCNC(=N)N)NC(=O)[C@H](CCCNC(=N)N)NC(=O)c1ccccc1N)C(=O)N[C@@H](CS)C(=O)N[C@@H](Cc1c[nH]c2ccc([N+](=O)[O-])cc12)C(N)=O` (H-[2Abz]RRRRHLC[Trp(5-NO2)]-NH2), the inhibition constant Ki at Genome polyprotein [1] came out at 300 nM; on Genome polyprotein [2] it was 1100 nM.

At Genome polyprotein [7], `N=C(N)NCCCC(C=O)NC(=O)[C@H](CCCCN)NC(=O)c1ncc[nH]1` (stereo not given in full) showed a Ki of 120 nM.

`[H]/N=C(\N)NCCC[C@@H](C=O)NC(=O)[C@H](CCCCN)NC(C)=O` came in with an IC50 on Nonstructural protein 3 [8] of 280 nM.

For `CC(=O)N[C@@H](CCCNC(=N)N)C(=O)N[C@@H](CCCNC(=N)N)C(=O)N[C@@H](CCCNC(=N)N)C(=O)N[C@@H](CCCNC(=N)N)C(=O)N[C@@H](Cc1cnc[nH]1)C(=O)N[C@@H](Cc1c[nH]c2ccccc12)C(=O)N[C@@H](CS)C(=O)N[C@@H](Cc1c[nH]c2ccccc12)C(N)=O` (Ac-RRRRHWCW-NH2), the inhibition constant (Ki) on Genome polyprotein [1] was 400 nM; on Genome polyprotein [2], 300 nM.

On to `CC(C)C[C@H](NC(=O)[C@H](Cc1cnc[nH]1)NC(=O)[C@H](CCCNC(=N)N)NC(=O)[C@H](CCCNC(=N)N)NC(=O)[C@H](CCCNC(=N)N)NC(=O)[C@@H](N)CCCNC(=N)N)C(=O)N[C@@H](CS)C(=O)N[C@@H](Cc1c[nH]c2ccccc12)C(N)=O` (H-RRRRHLCW-NH2), for which the Ki worked out at 300 nM at Genome polyprotein [1] and 400 nM on Genome polyprotein [2].

On Nonstructural protein 3 [9], `N=C(N)NCCC[C@H](NC(=O)[C@H](CCCCN)NC(=O)[C@H](CCCCN)NC(=O)Cc1ccc(CNC(=N)N)cc1)C(N)=O` showed an IC50 of 1600 nM and a Ki of 600 nM.

As to `N=C(N)NCCC[C@H](NC(=O)[C@H](CCCCN)NC(=O)[C@H](CCCCN)NC(=O)Cc1ccccc1)C(=O)NCC(=O)NCC(N)=O` (PhAc-KKRGG-NH2), at Nonstructural protein 3 [9], inhibition was half-maximal at 1200 nM (IC50) and the inhibition constant (Ki) amounted to 470 nM.

Consider `N=C(N)NCCC[C@H](NC(=O)Cc1ccc(CNC(=N)N)cc1)C(=O)N[C@@H](CCCNC(=N)N)C(=O)N[C@@H](CCCNC(=N)N)C(=O)NCc1ccc(C(=N)N)cc1`, for which, on Nonstructural protein 3 [9], the IC50 turned out to be 1100 nM and the Ki was determined as 430 nM.

In the case of `N=C(N)NCCC[C@H](NC(=O)c1nccs1)C(=O)N[C@@H](CCCCN)C(=O)N[C@H](C(N)=O)c1ccc(OCc2ccc(C(F)(F)F)cc2)cc1`, the IC50 on Nonstructural protein 3 [10] stood at 1040 nM; on Nonstructural protein 3 [11] it was 1060 nM; on Nonstructural protein 3 [12] it was 1350 nM.
